Converted amounts (≈) assume the structure as drawn. “Also recorded” adds a separate entry of the source. Read-outs that look alike come from different tables or passages of the source.
Columns and labels:
[1] = tested on: sleep/hypnotic effect of zolpidem or brotizolam; assay: Clinical study: overall response in performance tasks, flumazenil versus placebo
[2] = cited from earlier work
[3] = Gel electrophoresis migration in agarose gel; assay type: physicochemical; conditions: pH 4.5 compared with pH 5.5 and 7.2; 0.66 mg/ml, 1% gel, positive electrode
Description: The following parameters were applied in order to evaluate migration in agarose gel (1%; 3 mm thick):
Total Width: 15.5 cm; Length: 15 cm; No of Lanes: 4; No of sections: 10; Buffer solution used: TAE (Tris […], Acetic acid, EDTA); Well vol: 10 ul/well; Voltage used: 50V-100V DC; and Run Time: 1 hr.
1. 0.66 mg/ml flumazenil pH 4.5—Positive Electrode 2. 0.66 mg/ml flumazenil pH 5.5—Positive Electrode 3. 0.66 mg/ml flumazenil in tween80 pH 7.2—Positive Electrode

[4] = tested on: sleep/hypnotic effect of zolpidem or brotizolam; assay: Clinical study: digit symbol substitution test (DSST)
[5] = tested on: sleep/hypnotic effect of zolpidem or brotizolam; assay: Clinical study: immediate Word Recall Test (iWRT)
[6] = cited from earlier work; remark: listed apart in the source
[7] = tested on: sleep/hypnotic effect of zolpidem or brotizolam; assay: Clinical study: Profile Of Mood States (POMS) Brief form
[8] = Clinical study: vital signs and safety assessments
[9] = Passive transdermal paper feasibility (3M empirical model)
Description: The feasibility of transdermal delivery was evaluated for flumazenil and zolpidem. The target transdermal dose for flumazenil used in this assessment was 0.6 mg/hr.
This study addresses the feasibility of passively delivering a drug from a transdermal patch based on requirements specified for flumazenil and thereby provides evaluation of drug diffusion across the skin at a feasible rate. […] The assessment involves first qualitatively assessing the physicochemical properties and target transdermal dose of the drug by comparing them to the properties of an ideal passive transdermal drug.
This maximum limit is defined empirically by a 3M model, which can be used to estimate the largest flux and minimum patch size of the proposed drug product.
The target transdermal flux is calculated by dividing the target transdermal dose by the patch area. Using Fick's Law of Diffusion, the steady-state transdermal flux (μg/cm^2/hr) of a drug across the stratum corneum, j, is described by Equation 1: […]
where D is the diffusion coefficient of the drug in the stratum corneum (cm^2/hr), 1 is the thickness of the stratum corneum, P is the permeability coefficient (cm/hr), and Δc is the drug's concentration gradient across the stratum corneum (μg/mL), which is commonly approximated in the literature, under infinite sink conditions, by the drug's solubility in octanol (coct).
The target drug flux is estimated by dividing the target daily transdermal dose (mg/day) by the target patch size (cm^2). If the target patch size is not defined, then a value of 40 cm^2 is used. Then, using equation (1), the target permeability coefficient can be estimated by dividing the target drug flux by the drug's solubility in octanol.

[10] = tested on: sleep/hypnotic effect of zolpidem or brotizolam; assay: Clinical study: Visual Analogue Scale (sleepiness/vigilance, ability to focus, effectiveness)
[11] = high dose FLUMUP 1.6 mg, 10 participants
[12] = N = 20, sublingual 0.4 mg or 1.6 mg, change from post-hypnotic baseline

## CCOC(=O)c1ncn2c1CN(C)C(=O)c1cc(F)ccc1-2 [Flumazenil, ethyl 8-fluoro-5,6-dihydro-5-methyl-6-oxo-4H-imidazo[1,5-a] [1,4]benzodiazepine-3-carboxylate]
[1]; first 10 subjects, flumazenil 0.4 mg, brotizolam 0.25 mg or zolpidem 10 mg
  difference between flumazenil and placebo, low dose: no significant differences; also recorded: could not be better reversed
[1]; last 10 participants, flumazenil 1.6 mg, doubled hypnotic dose
  response: differences between flumazenil and placebo: over 30%
[1]; sublingual spray
  duration of effect following administration: at least 60 min
  start of effect following administration: ≤ 20 min
[2]; SciFinderScholar
  pKa: 1.14±0.2
[2]; Table 20A
  Ionization: Neutral
  log P: 1
[2]; Table 21
  Ionization: Neutral
[2]
  solubility (in words): sparingly soluble
  solubility in Propylene glycol, PEG 300 and PEG 400: ~23 mM (≈ 6980 µg/mL)
[2]; maximum
  solubility in pure ethanol: ~33 mM (≈ 10000 µg/mL)
[2]; product information
  pKa: 1.78
[3]
  migration in agarose gel: most efficient
[4]; N = 20, 0.4 or 1.6 mg
  DSST, Δ parameter 20 min aft spray: 17.7 ± 2.3
  DSST, Δ parameter 60 min aft spray: 22.4 ± 3.0
[4]; [11]
  DSST, % difference Flum vs. P: 92%
  DSST, Δ parameter 20 min aft spray: 23.2 ± 3.4
  DSST, Δ parameter 60 min aft spray: 30.4 ± 3.6
[5]; N = 20, 0.4 or 1.6 mg
  iWRT, Δ parameter 20 min aft spray: 4.2 ± 0.8
  iWRT, Δ parameter 60 min aft spray: 5.4 ± 1.1
[5]; [11]
  iWRT, % difference Flum vs. P: 92%
  iWRT, Δ parameter 20 min aft spray: 5.5 ± 0.9
  iWRT, Δ parameter 60 min aft spray: 6.1 ± 1.2
[6]; for IV 0.2 mg
  effective plasma level: 5 to 20 ng/mL
[6]; from the oral administration
  time to peak plasma level: 20 to 90 min
[6]; in vivo
  plasma half life time: 7 to 15 min
  protein binding: 40%
  volume distribution: 0.63 to 1.6 L/kg
[6]; intravenous
  onset of action: few seconds to two minutes
  time of peak effect post administration: six to ten minutes
[6]; oral delivery, high hepatic elimination
  bioavailability: 16%
[6]; oral dose of 200-600 mg
  plasma level: 143 to 439 ng/mL
[7]; N = 20, 0.4 or 1.6 mg
  POMS- fatigue, Δ parameter 20 min aft spray: −3.7 ± 0.9
  POMS- fatigue, Δ parameter 60 min aft spray: −5.5 ± 1.0
  POMS-Alertness, Δ parameter 20 min aft spray: 3.5 ± 0.9
  POMS-Alertness, Δ parameter 60 min aft spray: 5.3 ± 1.2
[7]; [11]
  POMS- (first POMS line, r13), % difference Flum vs. P: 72%
  POMS- (first POMS line, r13), Δ parameter 20 min aft spray: −5.8 ± 1.6
  POMS- (first POMS line, r13), Δ parameter 60 min aft spray: −8.2 ± 1.6
  POMS- (second POMS line, r14), % difference Flum vs. P: 93%
  POMS- (second POMS line, r14), Δ parameter 20 min aft spray: 4.3 ± 1.5
  POMS- (second POMS line, r14), Δ parameter 60 min aft spray: 7.2 ± 2.0
[8]; N = 20, 0.4 or 1.6 mg
  Diastolic BP, Δ parameter 20 min aft spray: −0.5 ± 1.5
  Diastolic BP, Δ parameter 60 min aft spray: −2.3 ± 1.2
  Systolic BP, Δ parameter 20 min aft spray: −5.5 ± 2.3
  Systolic BP, Δ parameter 60 min aft spray: −6.1 ± 2.7
[8]; [12]
  Pulse, Δ parameter 20 min aft spray: −2.9 ± 1.3
  Pulse, Δ parameter 60 min aft spray: −3.4 ± 1.6
[8]; both doses of flumazenil, n=20
  complaints of unusual sensation, pain, nausea, abdominal pain or other side effect: None of the participants complained
[8]; [11]
  Diastolic BP, % difference Flum vs. P: 70%
  Diastolic BP, Δ parameter 20 min aft spray: −2.0 ± 1.9
  Diastolic BP, Δ parameter 60 min aft spray: −2.6 ± 1.8
  Pulse, % difference Flum vs. P: 8%
  Pulse, Δ parameter 60 min aft spray: −1.2 ± 2.7
  Systolic BP, % difference Flum vs. P: 59%
  Systolic BP, Δ parameter 20 min aft spray: −4.7 ± 3.5
  Systolic BP, Δ parameter 60 min aft spray: −1.7 ± 4.2
[8]; high dose FLUMUP 1.6 mg, 10 participants, doubled hypnotic dose
  Pulse, Δ parameter 20 min aft spray: −0.4 ± 1.9
[8]; sublingual 0.4 mg and 1.6 mg, n=20
  vital signs (pulse, respiration), temperature and blood pressure: within normal values
[8]; sublingual 0.4 mg and 1.6 mg, with respect to placebo, n=20
  physical, neurological, mouth and buccal, cardiac and lung examination, ECG: not adversely affected
[9]
  log P vs. Ideal transdermal drug (1 to 3): +
[9]; Table 20A
  Ionization vs. Ideal transdermal drug (Neutral): +
[9]; Table 21
  Ionization vs. Ideal transdermal drug (Neutral): +
[10]; N = 20, 0.4 or 1.6 mg
  Effectiveness, Δ parameter 20 min aft spray: 2.9 ± 0.6
  Effectiveness, Δ parameter 60 min aft spray: 4.5 ± 0.6
  Focus Ability, Δ parameter 20 min aft spray: 2.7 ± 0.5
  Focus Ability, Δ parameter 60 min aft spray: 4.3 ± 0.6
  Vigilance, Δ parameter 20 min aft spray: 3.0 ± 0.6
  Vigilance, Δ parameter 60 min aft spray: 4.7 ± 0.6
[10]; [11]
  Effectivenes, % difference Flum vs. P: 61%
  Effectivenes, Δ parameter 20 min aft spray: 3.8 ± 0.7
  Effectivenes, Δ parameter 60 min aft spray: 5.5 ± 0.7
  Focus Ability, % difference Flum vs. P: 59%
  Focus Ability, Δ parameter 20 min aft spray: 3.7 ± 0.7
  Focus Ability, Δ parameter 60 min aft spray: 5.8 ± 0.8
  Vigilance, % difference Flum vs. P: 69%
  Vigilance, Δ parameter 20 min aft spray: 3.6 ± 0.8
  Vigilance, Δ parameter 60 min aft spray: 5.8 ± 0.8

From patent US20120295893A1, “COMPOSITIONS AND METHODS OF COUNTERACTING RESIDUAL SEDATIVE EFFECTS OF SLEEP/ HYPNOTIC DRUGS” (COERULEUS LTD., priority 2009, published 2012)
